The record followed here is US12310946B2, “Pharmaceutical composition for oral administration of edaravone and method of administering same” (MITSUBISHI TANABE PHARMA CORPORATION, priority 2020, dated 2025).

This series can be described thus: Clinical study #2: PK of edaravone oral formulation (formula #2), fasted vs 4 h after high-fat meal. The settings on record: male, human, plasma, 100 mg, 100 mg oral, mean (n = 9). The series is classed as in vivo. As for the experimental part:
Effects of meal consumption before administration of the edaravone oral formulation on the pharmacokinetics of edaravone were evaluated. Specifically, clinical studies #1, #2, and #3 described below were conducted on separate days in Japanese healthy adult male subjects. In each of clinical studies #1, #2, and #3, one dose each of edaravone oral formulations (edaravone suspensions) of formulas #1, #2, and #3 shown in Table 1 below were used respectively and administered orally once during the study period. For each clinical study, a reference study was conducted (reference example), in which the edaravone oral formulation was administered in fasted conditions as described below, and in each clinical study and the corresponding reference study, the edaravone oral formulation was each administered to the same subjects.
For the high-fat meal, a meal with total calories per meal of 800 to 1000 kilocalories and calorie intake from lipid of 50% was used. For the standard meal, a meal with total calories per meal of 400 to 500 kilocalories and calorie intake from lipid of 25% was used. For the light meal, a liquid-type nutritional supplement with total calories per meal of 250 kilocalories (enteral nutritional supplement: Ensure Liquid (trade name)) was used.
The edaravone oral formulation (formula #2) was administered orally to the subjects 4 hours after high-fat meal consumption. Blood samples were each collected before the administration, and 5 minutes, 15 minutes, 30 minutes, 1 hour, 1.5 hours, 2 hours, 4 hours, 6 hours, 8 hours, 12 hours, 24 hours, 36 hours, and 48 hours after the administration, and the concentrations of unchanged edaravone in plasma were measured. On the other hand, as a reference example, the edaravone oral formulation was administered orally to the same subjects in fasted conditions, blood samples were collected, and the concentrations of unchanged edaravone in plasma were measured in the same manner. For the administration in fasted conditions, the edaravone oral formulation was administered orally after a lapse of 10 hours or longer from the previous meal consumption. None of the subjects consumed a next meal until the blood sample collection 4 hours after the administration was completed.

Setting [1] is: formula #2, 4 h after high-fat meal.

In the case of `CC1=NN(c2ccccc2)C(=O)C1` [Edaravone, 3-methyl-1-phenyl-2-pyrazolin-5-one], under setting [1], the AUC(0-inf) (commonly total exposure, with the tail of the curve extrapolated) was found to be 1250 ng·h/mL; the highest concentration (Cmax) (commonly the peak of the concentration-time curve) is 1010 ng/mL; the Tmax (commonly the time from dosing to the highest level) stood at 0.47 h; the half-life (in general, the time needed for the level to fall by half in the phase considered) was 7.66 h. Moreover, where the note is “formula #2, fasted”, the AUC(0-inf) worked out at 1650 ng·h/mL, the peak level (Cmax) was 1810 ng/mL, the Tmax amounted to 0.36 h and the half-life was 9.33 h.
